The term IC50 denotes the midpoint of a concentration-inhibition curve. By Ki is commonly meant the dissociation constant of the complex between target and ligand, obtained from inhibition or displacement. A lower Ki goes with a stronger hold on the target.

A value given as a limit tells only on which side of the number the result lay.

Among the data in ChEMBL document CHEMBL1138227, “N1-substituted thymine derivatives as mitochondrial thymidine kinase (TK-2) inhibitors” (J Med Chem, 2006) are IC50 and Ki values, retold here.

The target of assay [1] is T1, Thymidine kinase 2, mitochondrial (Homo sapiens, UniProt O00142).
T1 sequence (O00142 whole entry): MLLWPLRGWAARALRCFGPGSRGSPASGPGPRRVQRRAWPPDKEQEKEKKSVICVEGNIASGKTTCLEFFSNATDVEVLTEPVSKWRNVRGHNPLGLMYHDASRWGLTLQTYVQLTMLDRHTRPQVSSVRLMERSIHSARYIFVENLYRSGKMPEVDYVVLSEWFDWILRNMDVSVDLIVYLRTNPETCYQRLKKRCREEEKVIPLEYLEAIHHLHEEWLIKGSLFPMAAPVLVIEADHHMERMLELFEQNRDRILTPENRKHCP
As to the kind of experiment: Inhibition of [3H]methyl dThd phosphorylation by TK2.

The next assay has as its target T2, Thymidine kinase (Human alphaherpesvirus 1, UniProt Q9QNF7).
T2 sequence (Q9QNF7 whole entry): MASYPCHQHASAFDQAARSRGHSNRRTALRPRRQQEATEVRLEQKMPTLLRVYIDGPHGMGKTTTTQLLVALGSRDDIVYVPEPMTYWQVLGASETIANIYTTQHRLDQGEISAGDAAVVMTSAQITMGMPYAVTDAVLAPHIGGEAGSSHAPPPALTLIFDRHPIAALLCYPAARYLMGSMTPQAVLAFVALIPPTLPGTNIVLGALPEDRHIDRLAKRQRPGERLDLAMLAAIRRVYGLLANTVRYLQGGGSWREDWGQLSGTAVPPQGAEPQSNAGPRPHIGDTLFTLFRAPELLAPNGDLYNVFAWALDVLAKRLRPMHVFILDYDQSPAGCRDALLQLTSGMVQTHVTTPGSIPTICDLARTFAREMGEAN
The experiment in a line: Inhibition of [3H]methyl dThd phosphorylation by HSV1 TK.

The target in a further assay is T3, Deoxynucleoside kinase (Drosophila melanogaster, UniProt Q9XZT6).
T3 sequence (Q9XZT6 whole entry): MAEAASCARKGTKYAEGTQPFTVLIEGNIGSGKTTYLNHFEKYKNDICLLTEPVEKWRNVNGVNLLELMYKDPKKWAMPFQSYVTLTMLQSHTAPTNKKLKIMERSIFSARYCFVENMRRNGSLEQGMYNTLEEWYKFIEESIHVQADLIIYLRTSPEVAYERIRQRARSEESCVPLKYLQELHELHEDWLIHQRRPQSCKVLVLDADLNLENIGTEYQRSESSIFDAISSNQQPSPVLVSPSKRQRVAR
The experiment in a line: Inhibition of [3H]methyl dThd phosphorylation by Drosophila melanogaster dNK.

Assay [2] in a line: Cytotoxicity against human OST TK- cells expressing HSV1 TK in presence of 5 uM 1-[6-[1,1-(diphenyl)-1-(4-pyridyl)methoxy]hexyl]thymine. Format: cell-based.
Assay [3] can be described thus: Cytotoxicity against human OST TK- cells expressing HSV1 TK in presence of 5 uM 1-[6-(triphenylmethoxy)hexyl]thymine. Format: cell-based.
Assay [4] has as its target T1, Thymidine kinase 2, mitochondrial. As to the kind of experiment: Inhibition of TK2.
Assay [5] in a line: Cytotoxicity against human OST TK- cells expressing HSV1 TK in presence of 10 uM 1-[6-[1,1-(diphenyl)-1-(4-pyridyl)methoxy]hexyl]thymine. Format: cell-based.
Assay [6] can be described thus: Cytotoxicity against human OST TK- cells expressing HSV1 TK in presence of 10 uM 1-[6-(triphenylmethoxy)hexyl]thymine. Format: cell-based.
Assay [7] is described as follows: Cytotoxicity against human OST TK- cells expressing HSV1 TK in presence of 2.5 uM 1-[6-[1,1-(diphenyl)-1-(4-pyridyl)methoxy]hexyl]thymine. Format: cell-based.
Assay [8] can be described thus: Cytotoxicity against human OST TK- cells expressing HSV1 TK in presence of 2.5 uM 1-[6-(triphenylmethoxy)hexyl]thymine. Type of assay: cell-based.
Assay [9] in a line: Cytotoxicity against human OST TK- cells expressing HSV1 TK. Format: cell-based.

For the compound `Cc1cn(CCOCCOC(c2ccccc2)(c2ccccc2)c2ccccc2)c(=O)[nH]c1=O`, the values for the IC50 (in [1]; against Thymidine kinase; against Deoxynucleoside kinase) were 9.7 µM, 17 µM and 56 µM, respectively.

For `Cc1cn(CCCCCOC(c2ccccc2)(c2ccccc2)c2ccccc2)c(=O)[nH]c1=O`, the IC50 was found to be 2.5 µM in assay [1], 32 µM at Thymidine kinase and 15 µM on Deoxynucleoside kinase.

Turning to `Cc1cn(CCCCCCCOC(c2ccccc2)(c2ccccc2)c2ccccc2)c(=O)[nH]c1=O`, the IC50 in assay [1] is 4.7 µM; at Thymidine kinase it was ≥ 50 µM; at Deoxynucleoside kinase it was 32 µM.

For `Cc1cn(C/C=C\COC(c2ccccc2)(c2ccccc2)c2ccncc2)c(=O)[nH]c1=O`, the IC50 amounted to 1.8 µM in assay [1], 25 µM at Thymidine kinase and 3.4 µM at Deoxynucleoside kinase.

In the case of `Cc1cn(CCCCCCOC(c2ccccc2)(c2ccccc2)c2ccncc2)c(=O)[nH]c1=O`, the IC50 in assay [2] is 0.081 µM; in assay [3], 0.24 µM; in [1], 0.47 µM; in assay [5], 0.11 µM; in [6] it was 0.37 µM; in assay [7], 0.05 µM. The figures for the IC50 (against Thymidine kinase; against Deoxynucleoside kinase; in [8]) were 2 µM, 2.7 µM and 0.12 µM, respectively. The compound further returned a Ki in [4] of 0.29 µM.

In the case of `CNC(=O)c1ccc(C(OC/C=C\Cn2cc(C)c(=O)[nH]c2=O)(c2ccccc2)c2ccccc2)cc1`, the values for the IC50 (in assay [1]; against Thymidine kinase; on Deoxynucleoside kinase) were 1.9 µM, 42 µM and 1.6 µM, respectively.

Turning to `Nc1nc2c(ncn2COC(CO)CO)c(=O)[nH]1` [GANCICLOVIR], the IC50 is 0.081 µM in assay [2]; 0.033 µM in assay [3]; 0.11 µM in [5]; 0.041 µM in [6]; 0.05 µM in [7]; 0.0019 µM in assay [9]. Moreover, the IC50 in [8] worked out at 0.018 µM.

For the compound `CNC(=O)c1ccc(C(OCCCCCCn2cc(C)c(=O)[nH]c2=O)(c2ccccc2)c2ccccc2)cc1`, the figures for the IC50 (in assay [1]; at Thymidine kinase; at Deoxynucleoside kinase) were 0.39 µM, 0.7 µM and 3.5 µM, respectively.

As to `Cc1cn(CCOCCOC(c2ccccc2)(c2ccccc2)c2ccncc2)c(=O)[nH]c1=O`, the IC50 in assay [1] turned out to be 23 µM; at Thymidine kinase, 21 µM; against Deoxynucleoside kinase, 35 µM.

For `Cc1cn(C/C=C\COC(c2ccccc2)(c2ccccc2)c2ccc(Cl)cc2)c(=O)[nH]c1=O`, the IC50 stood at 2.4 µM in assay [1], 18 µM at Thymidine kinase and 5.7 µM against Deoxynucleoside kinase.

For `Cc1cn(CCOCCOC(c2ccccc2)(c2ccccc2)c2ccc(Cl)cc2)c(=O)[nH]c1=O`, the IC50 in [1] is 5.2 µM; against Thymidine kinase, 2.7 µM; on Deoxynucleoside kinase it was 45 µM.

As for `Cc1cn(C/C=C\COC(c2ccccc2)(c2ccccc2)c2cc[n+](C)cc2)c(=O)[nH]c1=O`, the IC50 in assay [1] is 114 µM; against Thymidine kinase, > 500 µM; against Deoxynucleoside kinase it was 144 µM.

`Cc1cn(CCCCCCOC(c2ccccc2)(c2ccccc2)c2ccccc2)c(=O)[nH]c1=O`: the IC50 in assay [2] was determined as 0.033 µM; in assay [3], 0.1 µM; in assay [1], 0.5 µM; in [5] it was 0.041 µM; in assay [6] it was 0.15 µM; in assay [7] it was 0.018 µM. Also, the IC50 stood at 3.7 µM against Thymidine kinase, 17 µM at Deoxynucleoside kinase and 0.055 µM in assay [8].

As to `Cc1cn(CCCCCCOC(c2ccccc2)(c2ccccc2)c2cc[n+](C)cc2)c(=O)[nH]c1=O`, the results for the IC50 (in assay [1]; on Thymidine kinase; against Deoxynucleoside kinase) were 23 µM, 41 µM and 29 µM, respectively.

For the compound `Cc1cn(CCCOC(c2ccccc2)(c2ccccc2)c2ccccc2)c(=O)[nH]c1=O`, the IC50 worked out at 45 µM in assay [1], 46 µM against Thymidine kinase and 21 µM at Deoxynucleoside kinase.

As for `Cc1cn(CCCCCCCCOC(c2ccccc2)(c2ccccc2)c2ccccc2)c(=O)[nH]c1=O`, the IC50 in assay [1] is 45 µM; against Thymidine kinase, > 500 µM; against Deoxynucleoside kinase, 30 µM.

Take `Cc1cn(CCCCCCOC(c2ccccc2)(c2ccccc2)c2ccc(Cl)cc2)c(=O)[nH]c1=O`: the concentration for half-maximal inhibition (IC50) turned out to be 1.9 µM in assay [1], 1 µM at Thymidine kinase and 47 µM against Deoxynucleoside kinase.

For the compound `Cc1cn(C/C=C\COC(c2ccccc2)(c2ccccc2)c2ccccc2)c(=O)[nH]c1=O`, the IC50 against Deoxynucleoside kinase came out at 3.3 µM.

Turning to `Cc1cn([C@@H]2O[C@H](CO)[C@@H](O)[C@@H]2O)c(=O)[nH]c1=O`, the IC50 in assay [2] was 0.24 µM; in assay [3], 0.1 µM; in assay [5], 0.37 µM; in assay [6], 0.15 µM; in [7], 0.12 µM; in [9], 0.0062 µM. For the same compound, the IC50 in [8] was found to be 0.055 µM.
